Laboratory results: patent US20090068290A1, “BIFEPRUNOX DOSES FOR TREATING SCHIZOPHRENIA” (priority 2006, published 2009)

How the values were obtained:
[1] = test system: patients with chronic schizophrenia; assay: PANSS general psychopathology subscale score, Clinical Study Four; assay type: in vivo, human; settings: FAS, ANCOVA; for PANSS general psychopathology, Adjusted Mean Change from Baseline (LS mean): LOCF
Description: (§1) METHODOLOGY: This study was a multinational, multicenter, randomized, double-blind, parallel-group, placebo-controlled, fixed-dose study. The study consisted of a 3- to 6-day antipsychotic-free run-in period, after which patients were randomised to 6 months of double-blind treatment with fixed doses of bifeprunox (20 mg/day (BX20) or 30 mg/day (BX30)) or placebo (PBO). Patients allocated to the BX groups were up-titrated from 0.25 mg/day over 7 days (BX20) or 8 days (BX30), and then continued on these doses for the remainder of the study. […] At predetermined time points, blood samples were obtained for drug concentration analysis of BX and its major metabolites (3′- and 4′-sulfate conjugates of BX), and pharmaco-economic assessments were performed.

[2] = Pooled metabolic analysis, 6-week studies: lipid profile
From the text: OBJECTIVE: To examine the metabolic effects of bifeprunox in patients with acute and stable schizophrenia.
METHODS: Metabolic data was compiled from one 6-month and four 6-week studies (i.e., a treatment period) of bifeprunox in patients with stable and acute schizophrenia, respectively. In the 6-month study, patients received bifeprunox (n=331) or placebo (PBO) (n=166). […] Metabolic evaluations included body weight, body mass index (BMI), plasma glucose and lipid profiles. Fasting glucose and lipid values were assessed in one 6-week study and in the 6-month study. Triglyceride:HDL ratio (TG:HDL) was calculated as a marker of insulin resistance. No statistical analyses were performed; only descriptive statistics are presented.

[3] = test system: patients with chronic schizophrenia; assay: PANSS responders (reduction in PANSS total score), Clinical Study Four; assay type: in vivo, human; settings: FAS, LOCF
Description: as §1
CLINICAL STUDY FOUR: The proportion of patients with a ≧25%, ≧35%, ≧45%, or ≧55% reduction in PANSS total score relative to baseline at each visit (PANSS responders) is shown by LOCF (FIG. 4).

[4] = test system: patients with chronic schizophrenia; assay: PANSS positive subscale score, Clinical Study Four; assay type: in vivo, human; settings: FAS, ANCOVA; for PANSS positive subscale, Adjusted Mean Change from Baseline (LS mean): LOCF
Description: as §1

[5] = Lipid profile and fasting glucose, Clinical Study Four; assay type: in vivo, human
Description: as §1

[6] = fasting, endpoint, 6-week studies, BX total, OLZ 15 mg
[7] = non-fasting, endpoint, 6-week studies, BX total, RISP 6 mg, OLZ 15 mg, HAL 10 mg
[8] = BX20 (bifeprunox 20 mg), Fasting
[9] = BX20 (bifeprunox 20 mg), Non-fasting
[10] = BX30 (bifeprunox 30 mg), Fasting
[11] = BX30 (bifeprunox 30 mg), Non-fasting

O=c1[nH]c2cccc(N3CCN(Cc4cccc(-c5ccccc5)c4)CC3)c2o1 [Bifeprunox, 7-[4-([1,1′-biphenyl]-3-ylmethyl)-1-piperazinyl]-2(3H)-benzoxazolone]
PANSS general psychopathology subscale scores versus PBO, per-visit LOCF analysis ([1]; BX20 and BX30): statistically significantly superior to PBO from Week 9 onwards | PANSS general psychopathology, Adjusted Mean Change from Baseline (LS mean) ([1]; Month 6, listed as BX20): 0.4 | PANSS general psychopathology, Adjusted Mean Change from Baseline (LS mean) ([1]; Month 6, listed as BX30): 0.8 | PANSS general psychopathology, Adjusted Mean Change from Baseline (LS mean) ([1]; Week 6, listed as BX20): −1.2 | PANSS general psychopathology, Adjusted Mean Change from Baseline (LS mean) ([1]; Week 6, listed as BX30): −0.4 | change in total cholesterol (TC) ([2]; 6-week studies): -0.40 mmol/L | decrease in total cholesterol (TC) ([2]; 6-week studies): 8% | non-fasting total cholesterol and triglyceride at endpoint (in words) ([2]; 6-week studies): greatest decreases | change in TG ([2]; 6 week studies): -0.44 mmol/L | decrease in TG ([2]; 6 week studies): 24% | Fasting HDL, Mean change (SD) [2, 6]: −0.5 (10.7) mg/dL | Fasting HDL, Percentage mean change [2, 6]: −1.0% | Total cholesterol, Mean change (SD) [2, 6]: −15.5 (32.9) mg/dL | Total cholesterol, Percentage mean change [2, 6]: −7.9% | Triglyceride:HDL ratio, Mean change (SD) [2, 6]: −0.4 (0.9) | Triglyceride:HDL ratio, Percentage mean change [2, 6]: −23.8% | Triglycerides, Mean change (SD) [2, 6]: −38.9 (73.5) mg/dL | Triglycerides, Percentage mean change [2, 6]: −24.2% | Total cholesterol, Mean change (SD) [2, 7]: −12.9 (0.8) mg/dL | Triglycerides, Mean change (SD) [2, 7]: −38.7 (1.3) mg/dL | proportion of patients with at least a 25% reduction in PANSS total score versus PBO ([3]; listed as BX20): statistically significantly larger than that in the PBO group from Week 9 onwards | proportion of patients with at least a 25% reduction in PANSS total score versus PBO ([3]; listed as BX30): statistically significantly larger than that in the PBO group at Month 5 only | PANSS positive subscale scores versus PBO, per-visit LOCF analysis ([4]; BX20 or BX30): statistically significantly superior to that with PBO from Week 6 onwards | PANSS positive subscale, Adjusted Mean Change from Baseline (LS mean) ([4]; Month 6): 0.3 | PANSS positive subscale, Adjusted Mean Change from Baseline (LS mean) ([4]; Week 6, listed as BX20): −0.9 | PANSS positive subscale, Adjusted Mean Change from Baseline (LS mean) ([4]; Week 6, listed as BX30): −0.8 | adjusted mean fasting glucose increase from baseline to Month 6 ([5]; BX20): 0.13 mmol/L | Cholesterol, total, Mean change from baseline to Month 6 [5, 8]: -0.18 mmol/L | HDL, direct, Mean change from baseline to Month 6 [5, 8]: 0.07 mmol/L | LDL, calculated, Mean change from baseline to Month 6 [5, 8]: -0.1 mmol/L | Triglycerides, Mean change from baseline to Month 6 [5, 8]: -0.08 mmol/L | VLDL, calculated, Mean change from baseline to Month 6 [5, 8]: -0.03 mmol/L | Cholesterol, total, Mean change from baseline to Month 6 [5, 9]: -0.42 mmol/L | HDL, direct, Mean change from baseline to Month 6 [5, 9]: 0.12 mmol/L | LDL, calculated, Mean change from baseline to Month 6 [5, 9]: -0.35 mmol/L | Triglycerides, Mean change from baseline to Month 6 [5, 9]: -0.41 mmol/L | VLDL, calculated, Mean change from baseline to Month 6 [5, 9]: -0.19 mmol/L | adjusted mean HDL cholesterol change from baseline to Month 6 ([5]; BX20, fasting): 0.07 mmol/L | adjusted mean triglycerides change from baseline to Month 6 ([5]; BX20, fasting): -0.16 mmol/L | adjusted mean HDL cholesterol change from baseline to Month 6 ([5]; BX20, non-fasting): 0.08 mmol/L | adjusted mean triglycerides change from baseline to Month 6 ([5]; BX20, non-fasting): -0.21 mmol/L | adjusted mean fasting glucose increase from baseline to Month 6 ([5]; BX30): 0.09 mmol/L | Cholesterol, total, Mean change from baseline to Month 6 [5, 10]: -0.22 mmol/L | HDL, direct, Mean change from baseline to Month 6 [5, 10]: 0.05 mmol/L | LDL, calculated, Mean change from baseline to Month 6 [5, 10]: -0.12 mmol/L | Triglycerides, Mean change from baseline to Month 6 [5, 10]: -0.40 mmol/L | VLDL, calculated, Mean change from baseline to Month 6 [5, 10]: -0.16 mmol/L | Cholesterol, total, Mean change from baseline to Month 6 [5, 11]: -0.10 mmol/L | HDL, direct, Mean change from baseline to Month 6 [5, 11]: 0.08 mmol/L | LDL, calculated, Mean change from baseline to Month 6 [5, 11]: -0.12 mmol/L | Triglycerides, Mean change from baseline to Month 6 [5, 11]: 0.06 mmol/L | VLDL, calculated, Mean change from baseline to Month 6 [5, 11]: 0.03 mmol/L | adjusted mean HDL cholesterol change from baseline to Month 6 ([5]; BX30, fasting): 0.07 mmol/L | adjusted mean triglycerides change from baseline to Month 6 ([5]; BX30, fasting): -0.37 mmol/L | adjusted mean HDL cholesterol change from baseline to Month 6 ([5]; BX30, non-fasting): 0.08 mmol/L | adjusted mean triglycerides change from baseline to Month 6 ([5]; BX30, non-fasting): -0.03 mmol/L
